Structures can show the parent of a compound that is named as a salt.
Columns and labels:
Format in all cases: in vivo
C57BL/6J mice [1] = experiment: Open field test of mice; conditions: open field 6 min, gavage one month, 3.33 mg/kg, x ± SE, hydrochloride
Protocol: (§1) The mice were kept in a light, temperature and humidity controlled room with 6 mice per cage, and were allowed to eat and drink ad libitum: temperature 21±2° C. humidity 50±10%, 12 h/12 h light and dark cycle (light on at 20:00, light off at 8:00). All animal experiments were conducted in accordance with the guidelines on experiment animal welfare and use issued by NIH.
(§2) The mice were adapted for one week after their arrival, and then entered the experiment.
(§3) The normal group was given the same volume of purified water by gavage, and the gavage doses of other groups are shown in the table in the Experimental results. The mice were administrated by gavage at a fixed time (9:00) every morning, with a gavage volume of 0.1 mL·10g^−1, for one month. The behavioral test was performed 1 h after the last gavage.
The test was carried out in an open field box with a length of 50 cm, a width of 50 cm and a depth of 50 cm. The bottom surface of the open field box was equally divided into 9 squares, in which the middle area was the central area, and the remaining areas were the peripheral areas. The bottom and four sides of the open field box were all white. The test was carried out in a quiet and weak red light environment. At the beginning, the mice were placed in the center of the open field box to observe their activities within 6 minutes. The total movement distance, the movement distance in the central area and the number of standing upright of the mice were recorded.

C57BL/6J mice [2] = experiment: Tail suspension test of mice; conditions: gavage daily for one month, 3.33 mg/kg, last 4 min of 6 min, x ± SE, hydrochloride
Protocol: as §1, §2, §3
In the tail suspension test, mice were hung on the tail suspension device using medical tape at a position ⅓ from the tip of the tail, in an upright position with the head being about 30 cm from the ground and facing straight onto a camera, which was used to record the immobility time during the tail suspension test of the mice in each group. The test lasted for 6 minutes, and the last 4 minutes were used to calculate the immobility time during the tail suspension test of mice. Immobility time is defined as the time when the mouse stops struggling and is still in a hanging state.

C57BL/6J mice [3] = experiment: Forced swimming test of mice; conditions: gavage daily for one month, 3.33 mg/kg, x ± SE, hydrochloride
Protocol: as §1, §2, §3
During forced swimming, all animals were put into a plexiglass cylinder containing water with a deep of 20 cm at 23±1° C., individually. After 15 minutes, they were transferred to a dry environment at 30° C. for 30 minutes (pre-experiment). After 24 hours, the mice were put into the plexiglass cylinder again for 5 minutes (formal experiment). During this period, the mice were recorded with a video camera. After each mouse was tested, the water was changed and the cylinder was cleaned. SMART3.0 software was used to record the number of static suspension and the latency of static suspension.

In the case of `CNCCC(Oc1ccc(C(F)(F)F)cc1)c1ccccc1` (stereo not drawn) [FXT, Fluoxetine hydrochloride], the “Number of standing uprights” value (C57BL/6J mice [1]) is reported as 29.20 ± 2.133, the Total movement distance (C57BL/6J mice [1]) is reported as 18435 ± 950.6 and the “Movement distance in the central area” value (C57BL/6J mice [1]; listed as fluoxetine) is reported as “no significant change”. For the same molecule, the “Number of standing uprights” value (C57BL/6J mice [1]; listed as fluoxetine) was “no significant change”, the Total movement distance (C57BL/6J mice [1]; listed as fluoxetine) was “no significant change” and the “Immobility time during tail suspension” value (C57BL/6J mice [2]) was 59.62 ± 6.270 s. For the same molecule, the “Immobility time during tail suspension” value (C57BL/6J mice [2]; listed as fluoxetine) was “significantly less than that of the control group”, the “Number of static suspension” value (C57BL/6J mice [3]) was 54.64 ± 2.704 and the “Number of static suspension” value (C57BL/6J mice [3]; listed as fluoxetine) was “significantly less than that of the control group”.
